Laboratory results reported in US10632170B2, “Administration of compstatin to an individual for the treatment of a tumor” (The Trustees of the University of Pennsylvania, priority 2008, dated 2020).

Legend:
[1] = tested on: MDSCs obtained from tumors and spleens; assay: CD11b expression in MDSCs after stimulation in vitro (flow cytometry); type: cell-based, mouse; details: for CD11b upregulation in C5aR-deficient MDSCs: FIG. 6A-6D
Description: Single-cell suspensions were pre-incubated with anti-mouse CD16/CD32 mAb (Fc block, 2.4G2; BD Pharmingen) to block Fcγ receptors, then incubated with primary antibody. Fluorochrome-conjugated mAbs against mouse CD3 (17A2), CD4 (L3T4), CD8 (53-6.7), CD11b (M1/70), CD25 (PC61), CD45 (30-F11), CD69 (H1.2F3) and Gr-1 (RB6-8C5), (all from BD Biosciences) were used according to the manufacturer's instructions. In order to determine C5aR cell-surface expression, cells were sequentially incubated with rabbit polyclonal anti-mouse C5aR (C1150-32, BD Biosciences) or rabbit isotype (BD Pharmingen, 550875) and FITC-conjugated anti-rabbit IgG (F0112, R&D Systems), or with rat anti-mouse C5aR (mAb clone 20/70 Hycult biotechnology b.v., distributor-Cell science Inc.) or rat isotype (BD Pharmingen, 553928) followed by FITC-conjugated anti-rat IgG (Zymed-Invitrogen). For some experiments cells were permeabilized with the use of fixation and perm/wash buffers (BD Biosciences) prior to C5aR staining. Stained cells were subjected to six-color flow cytometry on a FACSCanto flow cytometer (BD Biosciences) using FlowJo software (Tree Star Inc.).
The migration of PMN-MDSCs to tumors requires crossing of the endothelial barrier by MDSCs. Leukocytes, in order to leave the circulation and migrate to interstitial tissues, require the interaction of their integrins with adhesion molecules on endothelial cells. It was hypothesized that the same mechanisms apply to MDSCs migrating to tumor tissue. Since CD11b is the αm subunit of integrin CR3, which interacts with ICAM-1 expressed on endothelial cells during leukocyte extravasation, the changes in CD11b expression were evaluated in MDSCs obtained from tumors and spleens after C5a stimulation in vitro.

[2] = tested on: MDSCs from spleens and tumors; assay: ROS and RNS production in MDSCs after stimulation in vitro (H2DCFDA); type: cell-based, mouse; details: for ROS and RNS production in spleen MDSCs of C5aR-deficient mice: MDSCs from spleens of C5aR-deficient mice; for ROS and RNS production in tumor-associated MDSCs: either subpopulation, data not shown
Description: The oxidation sensitive dye 2′-7′-dichloro dihydrofluorescein diacetate (H2DCFDA) (Molecular Probes) was used for the measurement of ROS and RNS production in cells isolated from tumors or spleens. The excised tumors and spleens were mechanically disintegrated to obtain a single-cell suspension. Cells resuspended in DMEM were incubated with 2 μM of dye at 37° C. for 15 min. After washing with PBS, cells were stained for flow cytometry analysis as described above. MDSCs were distinguished from other cells present in the cell suspension as a viable CD45^+CD11b^+Gr-1^+ cell population, and the fluorescence intensity was estimated in the channel suitable for FITC according to the manufacturer's instruction. The amounts of ROS and RNS in cells were proportional to the intensity of fluorescence and were expressed as median fluorescence for gated populations. For some experiments, in addition to incubation with H2DCFDA, freshly isolated cells were simultaneously stimulated by 1, 10, or 100 nM of recombinant mouse C5a expressed as previously described (Strey et al., 2003, J. Exp. Med. 198:913-923) or 1 μM of phorbol myristate acetate (PMA; Sigma-Aldrich). Preliminary experiments have shown that stimulation of cells with 10 nM C5a induced the highest induction of ROS and RNS production.
To further verify the results obtained from these in vivo studies, MDSCs from spleens and tumors of wild-type mice were stimulated to produce ROS and RNS by incubating them with various concentrations of C5a in vitro. MDSCs isolated from C5aR-deficient mice were used as an additional control for these experiments. […] It was concluded that the unresponsiveness of tumor-associated MDSCs to in vitro C5a stimulation was a result of the strong stimulation of these cells for ROS and RNS production in vivo in the tumor microenvironment and the exhaustion of this system; therefore, further stimulation of these cells in vitro failed.

TC-1 tumors [3] = assay: TC-1 syngeneic tumor growth in mice (tumor volumes); type: in vivo, mouse
Description: To establish TC-1 tumors, male and female mice 6-16 weeks of age were anesthetized and injected subcutaneously (s.c.) with 1×10^5 TC-1 cells in the right or left rear flank. […] Beginning about 2 weeks after cell injection, mice were anesthetized, and their tumors were measured with calipers every 2-4 days until the tumor size required sacrificing of the animals. Measurements were taken in two dimensions (length and width) because the depth of the tumor was difficult to assess in live animals. The depth of the tumor was therefore estimated based on the smaller (width) measurement, and the volume of the tumor was calculated using the formula: (length×width×depth)±2. One hour prior to sacrifice, 5-bromo-2′-deoxyuridine (BrdU; Sigma) was injected intraperitoneally (i.p.) into mice at a single dose of 50 mg/kg for further assessment of tumor or immune cell proliferation. […] Excised tumors were measured in three dimensions to obtain an accurate volume and then weighed. Tumors and spleens were cut into sections for cell isolation, histologic examination, or freezing.
Control mice in the experiments utilizing C5aR antagonist or Taxol were injected s.c., or i.p., respectively, with ˜400 μl PBS alone, or in some cases, s.c. with the cyclic hexapeptide AcF[OPdChaA(d)R] […] The pattern of the administration of this control peptide to mice followed that described for the C5aR antagonist.
The effect of genotype or treatment on tumor growth (FIGS. 1-4) was analyzed with two-way analysis of variance (ANOVA) using GraphPad Prism (GraphPad Software, Inc.); the Bonferroni post-test correction was applied to control for the occurrence of false-positives. […] A p value equal to or less than 0.05 was considered significant.

[4] = according to the manufacturer; cited from earlier work
C5aR = molecular target: T1, C5aR (Mus musculus, UniProt P30993); details: cited from earlier work
T1 construct: endogenous in cells; host or cells: host cells of living C57BL/6J mice bearing TC-1 tumours (in vivo)
T1 sequence (P30993 1-351): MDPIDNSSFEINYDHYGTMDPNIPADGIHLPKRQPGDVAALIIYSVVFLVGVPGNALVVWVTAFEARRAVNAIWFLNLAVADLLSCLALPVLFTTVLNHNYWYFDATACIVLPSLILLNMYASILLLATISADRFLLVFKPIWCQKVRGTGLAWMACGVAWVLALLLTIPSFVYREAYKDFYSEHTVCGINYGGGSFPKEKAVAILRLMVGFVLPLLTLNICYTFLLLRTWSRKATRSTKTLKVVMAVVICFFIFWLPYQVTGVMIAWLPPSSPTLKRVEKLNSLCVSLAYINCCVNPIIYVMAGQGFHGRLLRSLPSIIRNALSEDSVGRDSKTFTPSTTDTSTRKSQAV

TC-1 tumors [5] = assay: Immune cell infiltration of tumors (immunofluorescent staining for CD8, CD11b); type: in vivo, mouse
Description: The deposition of C3 cleavage products in tumor tissue was detected using a rat anti-mouse C3 mAb (clone 2/11), as described previously (Mastellos et al, 2004, Mol. Immunol. 40:1213-1221). […] Therefore, the positive reactivity in the tissue is thought to be associated with the activation of the complement cascade and C3 cleavage. C1q and MBL deposition were evaluated with the use of a rat anti-mouse C1q mAb (Abeam, Inc.) and a polyclonal goat anti-mouse MBL (Santa Cruz Biotechnology, Inc.), respectively. These sections were co-stained with the use of biotinylated anti-mouse CD31 to visualize tumor vasculature. CD8^+ T cell and myeloid-origin cell infiltrations of tumors were analyzed using anti-mouse CD8 and anti-mouse CD11b, respectively. Isotypic rat IgGs were used as a negative control. Anti-CD31, anti-CD8 and anti-CD11b and isotype controls were purchased from BD Biosciences. Primary antibodies bound in tissue were detected with donkey anti-rat or anti-goat Cy2-conjugated antibodies (The Jackson Laboratory), except for anti-CD31, which was visualized with a streptavidin-rhodamine complex (BD Biosciences). Immunofluorescent staining was performed on frozen, 5-μm-thick sections. For detection of complement deposition, green and red fluorescence images were merged with the use of Spot software (Diagnostic instruments, Inc.). CD8^+ tumor infiltrates were quantified using ImageJ image analysis software (NIH), positive cells were counted in whole tissue sections and means were calculated. The magnitude of CD11b^+ infiltrates was assessed in a semi-quantitative manner because of the relatively low numbers of infiltrating cells. Scores from 0 to 5 were assigned to sections, according to the relative intensity of the infiltrates. In addition, the distribution of infiltrating cells was analyzed. All analyses were performed in a blinded fashion.

arginase-1 = assay: Arginase-1 expression in tumor whole-cell extracts (immunoblot); type: in vivo, mouse; details: C5aR antagonist-treated vs control mice; without reaching statistical difference; FIG. 7F
Description: Whole-cell extracts were prepared from tumor tissue mechanically disrupted in lysis buffer (20 mM HEPES, pH 7.4, 0.2 mM EDTA, 420 mM NaCl, 1.5 mM MgCl2, 20% glycerol) treated with protease and phosphatase inhibitors (1 mM DTT, 0.1 mM PMSF, 0.1 mM Na3VO4, 1 mM NaF, 1 mM β-glycerophosphate, and 2 μg/ml each of antipain dihydrochloride, aprotinin, bestatin and leupeptin). For each protein sample, 40 μg was electrophoresed on a 12% polyacrylamide gel and transferred to a PVDF membrane. Membranes were incubated overnight at 4° C. with mouse monoclonal arginase I (8C9) antibody (Santa Cruz Biotechnology) or mouse monoclonal β-actin (AC-15) antibody (Abeam). Primary antibody binding was detected using HRP-conjugated anti-mouse antibody (Bio-Rad Laboratories, Inc.) and chemiluminescence (Amersham Pharmacia Biotech, Inc.). Protein loading was normalized according to the abundance of β-actin, with Ponceau S-stained membranes used for verification. Protein expression was quantified by densitometry using ImageQuant software (Molecular Dynamics).

TC-1 tumors [6] = assay: Tumor cell proliferation, apoptosis and angiogenesis in end-point tumor specimens; type: in vivo, mouse; details: C5aR antagonist vs PBS
Description: The morphology of tumors and spleens was assessed by light microscopy (Olympus BX 60) of hematoxylin and eosin-stained 5-μm paraffin sections. To assess the number of cells in the S phase of the cell cycle, paraffin sections from tumors and spleens were stained with anti-BrdU. The presence of apoptotic cells in tumor sections was determined by staining for the activated caspase-3 site on cytokeratin 18. Both assays were performed as described previously (Markiewski et al., 2004, J. Immunol. 173:747-754). The microvascular density of engrafted tumors was evaluated by immunofluorescent staining for CD31 expression on endothelial cells in frozen sections. The bound biotinylated anti-CD31 (MEC 13.3-BD Biosciences) was visualized with a streptavidin-rhodamine complex (BD Biosciences). Fluorescence was evaluated by standard fluorescent microscopy (Olympus BX 60 microscope). BrdU incorporation into tumor cells and the microvascular density of tumors were quantified in 5-10 microscopic fields (400× for BrdU and 100× for microvascular density) with the use of ImageJ image analysis software (NIH, Bethesda, Md.), and mean values were calculated. Apoptosis was assessed in a semi-quantitative manner: Scores from 0 to 4 were assigned to sections, depending on the size of the area occupied by apoptotic cells. All analyses were performed in a blinded fashion.

CCCCCCCCCCCCCC(=O)O[C@@H]1[C@@H](C)[C@@]2(O)[C@@H](C=C(CO)C[C@]3(O)C(=O)C(C)=C[C@@H]23)[C@@H]2C(C)(C)[C@]12OC(C)=O [PMA, phorbol myristate acetate]
CD11b upregulation in C5aR-deficient MDSCs [1]: response
ROS and RNS production in spleen MDSCs of C5aR-deficient mice ([2]; FIG. 7H, 7I): brisk response
ROS and RNS production in tumor-associated MDSCs [2]: lack of an increase

CC(=O)O[C@H]1C(=O)[C@@]2(C)[C@H]([C@H](OC(=O)c3ccccc3)[C@]3(O)C[C@H](OC(=O)[C@H](O)[C@@H](NC(=O)c4ccccc4)c4ccccc4)C(C)=C1C3(C)C)[C@]1(OC(C)=O)CO[C@@H]1C[C@@H]2O [Taxol, Paclitaxel]
suppressive effect on tumor growth compared with genetic C5aR deficiency (TC-1 tumors [3]; wild-type mice treated with Taxol vs C5aR-KO mice treated with PBS, FIG. 3C): similar
LD50 [4]: 128 mg/kg

AcF[OPdChaA(d)R]
ability to block C5aR signaling (C5aR; literature (Finch et al., 1999; Johswich et al., 2006)): does not have the ability to block C5aR signaling

Acetyl-Phe-[Orn-Pro-D-cyclohexylalanine-Trp-Arg] [C5aR antagonist]
location of CD11b+ cells in tumors (TC-1 tumors [5]; C5aR antagonist-treated mice, in control mice throughout the tumor sections): located only at the periphery of the tumors
number of cells expressing CD11b in tumor sections (TC-1 tumors [5]; C5aR antagonist-treated vs PBS-treated mice, FIG. 5F): lower
CD8+ cells infiltrating the tumor tissue (TC-1 tumors [5]; C5aR antagonist-treated vs control mice, FIG. 4A): heavily infiltrated by CD8^+ cells
further inhibition of tumor growth in C5aR-deficient mice (TC-1 tumors [3]; C5aR-deficient mice, in comparison to mice treated with control peptide): did not induce any further inhibition of tumor growth
tumor growth versus control mice treated with PBS (TC-1 tumors [3]; wild-type mice, 1 mg/kg s.c. every 2-3 days beginning 1 week after tumor cell injection, FIG. 3A): impaired tumor growth
inhibition of tumor growth compared with Taxol treatment (TC-1 tumors [3]; wild-type mice, C5aR antagonist 1 mg/kg s.c. vs Taxol 20 mg/kg i.p. once per week, FIG. 3A): comparable to that achieved by treatment with this anti-cancer therapeutic
arginase-1 expression in tumors (arginase-1): only slightly lower
tumor cell proliferation and apoptosis, and the extent of angiogenesis (TC-1 tumors [6]): only minimal differences
blockade of C5a-mediated effects in rodent disease models (C5aR; literature (Kohl et al., 2006; Holland et al.)): specifically block C5a-mediated effects

B1: C5a: recombinant mouse C5a anaphylatoxin used to stimulate MDSCs in vitro (protein)
chain: NLHLLRQKIEEQAAKYKHSVPKKCCYDGARVNFYETCEERVARVTIGPLCIRAFNECCTIANKIRKESPHKPVQLGR
CD11b upregulation in C5aR-deficient MDSCs [1]: lack of CD11b upregulation
expression of CD11b in MO-MDSCs ([1]; MO-MDSCs, 10 nM C5a, FIG. 6C, 6D): did not respond
expression of CD11b in wild-type PMN-MDSCs ([1]; PMN-MDSCs from spleens and tumors, 10 nM C5a, FIG. 6A, 6B): significant increase
C5a concentration giving the highest induction of ROS and RNS production ([2]; 1, 10 or 100 nM tested, preliminary experiments): 10 nM
ROS and RNS production in spleen MDSCs of C5aR-deficient mice ([2]; FIG. 7H, 7I): did not respond
ROS and RNS production in spleen MDSCs of wild-type mice ([2]; both subpopulations, vs non-stimulated cells from the same mouse, FIG. 7H, 7I): increasing their ROS and RNS production
ROS and RNS production in tumor-associated MDSCs [2]: did not respond
